According to publication PMC12677699, “Utilizing Proteolytic‐Resistant Nano‐Short Peptide Based on Naphthyl Tail‐Anchored to Combat Bacterial Infections” (Advanced Science, 2025):
Values after ≈ are worked out from the molar mass of the structure shown. Non-standard residues stand in square brackets, D forms with d. Residues, ends and D or L forms follow the SMILES beside them. ξ: configuration not given here. 2Nal = N[C@@H](Cc1ccc2ccccc2c1)C(=O)O; Ahp(2) = CCCCC[C@H](N)C(=O)O; ξAhp(2) = CCCCCC(N)C(=O)O

How the values were obtained:
[1] = tested on: E. coli ATCC 25922; test: Drug resistance assay, 30 serial passages; assay type: cell-based, Escherichia coli; conditions: E. coli ATCC 25922, 30 successive passages at sub-MIC concentrations
Description: (§1) The potential resistance development of nano‐short peptides was evaluated through 30 serial passages of E. coli ATCC 25922 and S. aureus ATCC 29213 in sub‐MIC conditions,^[ [38] ^] using gentamicin as control.

[2] = tested on: S. aureus ATCC 29213; test: Drug resistance assay, 30 serial passages; assay type: cell-based, Staphylococcus aureus; conditions: S. aureus ATCC 29213, 30 successive passages at sub-MIC concentrations; gentamicin by day 17
Description: as §1

[3] = tested on: P. aeruginosa 25349; test: MIC against clinical strain; assay type: cell-based; conditions: Pseudomonas aeruginosa, 25349, read-out: MIC, P. aeruginosa 25349
Description: (§2) The MIC values of the nano‐short peptides were determined according to standard protocols.^[ [63] ^] Bacterial strains were revived from cryopreservation and cultured in Mueller–Hinton broth (MHB) to logarithmic growth phase, then diluted to a final density of 0.5–1 × 10⁶ CFU mL^−1. Serial dilutions of the nano‐short peptides were prepared in 0.2% bovine serum albumin (BSA) using a 96‐well plate format. Equal volumes of peptide solutions and bacterial suspensions were combined and incubated at 37 °C for 20–22 h. Bacterial growth was assessed by measuring absorbance at 492 nm, with MHB alone (negative control) and untreated bacterial suspension (positive control) included for reference.

[4] = tested on: A. baumannii AB1902; test: MIC against clinical strain; assay type: cell-based; conditions: Acinetobacter baumannii, AB1902, read-out: MIC, A. baumannii AB1902
Description: as §2

[5] = tested on: A. baumannii AB1901; test: MIC against clinical strain; assay type: cell-based; conditions: Acinetobacter baumannii, AB1901, read-out: MIC, A. baumannii AB1901
Description: as §2

[6] = tested on: S. aureus 11011; test: MIC against clinical strain; assay type: cell-based; conditions: Staphylococcus aureus, 11011, read-out: MIC, S. aureus 11011
Description: as §2

[7] = tested on: S. pullorum C7913; assay type: cell-based
Description: as §2

[8] = tested on: S. epidermidis 12228; assay type: cell-based, Staphylococcus epidermidis
Description: as §2

[9] = tested on: E. coli 078; assay type: cell-based, Escherichia coli
Description: as §2

[10] = tested on: E. coli UB1005; assay type: cell-based, Escherichia coli
Description: as §2

[11] = tested on: E. coli 25922; assay type: cell-based, Escherichia coli
Description: as §2

[12] = tested on: E. faecalis 29212; assay type: cell-based, Enterococcus faecalis
Description: as §2

[13] = tested on: P. aeruginosa 27853; assay type: cell-based, Pseudomonas aeruginosa
Description: as §2

[14] = tested on: P. aeruginosa PAO1; assay type: cell-based, Pseudomonas aeruginosa
Description: as §2

[15] = tested on: MRSA 43300; assay type: cell-based, Methicillin-Resistant Staphylococcus aureus
Description: as §2

[16] = tested on: S. typhimurium 7731; assay type: cell-based, Salmonella typhimurium
Description: as §2

[17] = tested on: S. typhimurium 14028; assay type: cell-based, Salmonella typhimurium
Description: as §2

[18] = Critical aggregation concentration, 1,8-ANS fluorescence; assay type: physicochemical; conditions: 1,8-ANS 1 × 10^−6 M, peptide 2-256 × 10^−6 M in deionized water, 1 h, ex 360 nm, em 420–670 nm, linear fitting of fluorescence intensities
Description: The self‐assembly behavior of nano‐short peptides was characterized by determining the CAC using 1,8‐ANS as a hydrophobic fluorescent probe.^[ [32] ^] Serial peptide dilutions (2‐256 × 10^−6 M in 50 µL deionized water) were prepared in 96‐well plates. 1,8‐ANS powder was solubilized in dimethylformamide (DMF) and added to the 96‐well plates (final concentration of 1 × 10^−6 M), and deionized water solution containing 1,8‐ANS was used as a blank control. After incubation for 1 h, the fluorescence emission spectra were continuously monitored with a microplate reader (Tecan Infinite200 Pro, λ excitation = 360 nm, λ emission = 420–670 nm). CAC values were determined by linear fitting of representative fluorescence intensities.

[19] = tested on: S. aureus 25923; assay type: cell-based, Staphylococcus aureus
Description: as §2

[20] = tested on: S. aureus 29213; assay type: cell-based, Staphylococcus aureus
Description: as §2

[21] = tested on: E. coli ATCC 25922; test: Serum tolerance assay (MIC after incubation with serum); assay type: cell-based, Escherichia coli; conditions: 4 h of incubation with various serum concentrations
Description: The serum stability of nano‐short peptides was evaluated by incubating peptide solutions with fetal bovine serum (FBS), which was at concentrations of 25%, 50%, and 100% (diluted in 0.2% BSA solution). Following 4 h of incubation, the antimicrobial activity was determined by measuring the MIC against the test strains.

Compound	MIC, S. pullorum C7913 [7]	MIC, S. epidermidis 12228 [8]	MIC, E. coli 078 [9]	MIC, E. coli UB1005 [10]	MIC, E. coli 25922 [11]	MIC, E. faecalis 29212 [12]	MIC, P. aeruginosa 27853 [13]	MIC, P. aeruginosa PAO1 [14]	MIC, MRSA 43300 [15]	MIC, S. typhimurium 7731 [16]	MIC, S. typhimurium 14028 [17]	critical aggregation concentration (CAC) [18]	MIC, S. aureus 25923 [19]	MIC, S. aureus 29213 [20]	also measured
CNC(C)C1CCC(N)C(OC2C(N)CC(N)C(OC3OCC(C)(O)C(NC)C3O)C2O)O1 (stereo not drawn) [Gentamicin]	–	–	–	–	–	–	–	–	–	–	–	–	–	–	increase in MIC values after serial passage [1]: 128 fold; increase in MIC values after serial passage [2]: 128 fold; MIC [3]: 128 µM (≈ 61.1 µg/mL); MIC [4]: 128 µM (≈ 61.1 µg/mL); MIC [5]: 2 µM (≈ 0.955 µg/mL); MIC [6]: 128 µM (≈ 61.1 µg/mL)
CCCCCC(N)C(=O)NC(CCCCC)C(=O)NC(CCCCC)C(=O)NC(CCCCC)C(=O)NC(CCCCC)C(=O)N[C@H](CCCNC(=N)N)C(=O)N[C@@H](CCCNC(=N)N)C(=O)N[C@@H](CCCNC(=N)N)C(=O)N1CCC[C@H]1C(=O)O (stereo partly drawn) [Peptide B5] (H-[ξAhp(2)][ξAhp(2)][ξAhp(2)][ξAhp(2)][ξAhp(2)][dR]RRP-OH; N-terminus assumed)	128 µM (≈ 156 µg/mL)	256 µM (≈ 312 µg/mL)	256 µM (≈ 312 µg/mL)	256 µM (≈ 312 µg/mL)	256 µM (≈ 312 µg/mL)	256 µM (≈ 312 µg/mL)	256 µM (≈ 312 µg/mL)	256 µM (≈ 312 µg/mL)	32 µM (≈ 39 µg/mL)	256 µM (≈ 312 µg/mL)	256 µM (≈ 312 µg/mL)	3.34 µM	256 µM (≈ 312 µg/mL)	256 µM (≈ 312 µg/mL)	–
CCCCC[C@H](NC(=O)[C@H](CCCCC)NC(=O)[C@H](CCCCC)NC(=O)[C@@H](N)CCCCC)C(=O)N[C@@H](CCCCC)C(=O)N[C@@H](CCCCC)C(=O)N[C@H](CCCNC(=N)N)C(=O)N[C@@H](CCCNC(=N)N)C(=O)N[C@@H](CCCNC(=N)N)C(=O)N1CCC[C@H]1C(=O)O [Peptide B6] (H-[Ahp(2)][Ahp(2)][Ahp(2)][Ahp(2)][Ahp(2)][Ahp(2)][dR]RRP-OH; N-terminus and C-terminus assumed)	256 µM (≈ 345 µg/mL)	256 µM (≈ 345 µg/mL)	256 µM (≈ 345 µg/mL)	256 µM (≈ 345 µg/mL)	256 µM (≈ 345 µg/mL)	256 µM (≈ 345 µg/mL)	256 µM (≈ 345 µg/mL)	256 µM (≈ 345 µg/mL)	256 µM (≈ 345 µg/mL)	256 µM (≈ 345 µg/mL)	256 µM (≈ 345 µg/mL)	3.31 µM	256 µM (≈ 345 µg/mL)	256 µM (≈ 345 µg/mL)	–
N=C(N)NCCC[C@H](NC(=O)[C@H](Cc1ccc2ccccc2c1)NC(=O)[C@H](Cc1ccc2ccccc2c1)NC(=O)[C@@H](N)Cc1ccc2ccccc2c1)C(=O)N[C@H](CCCNC(=N)N)C(=O)N[C@@H](CCCNC(=N)N)C(=O)N1CCC[C@H]1C(=O)O [Peptide N3] (H-[2Nal][2Nal][2Nal]R[dR]RP-OH)	16 µM (≈ 18.8 µg/mL)	16 µM (≈ 18.8 µg/mL)	8 µM (≈ 9.4 µg/mL)	8 µM (≈ 9.4 µg/mL)	16 µM (≈ 18.8 µg/mL)	16 µM (≈ 18.8 µg/mL)	8 µM (≈ 9.4 µg/mL)	16 µM (≈ 18.8 µg/mL)	16 µM (≈ 18.8 µg/mL)	32 µM (≈ 37.6 µg/mL)	32 µM (≈ 37.6 µg/mL)	62.79 µM	16 µM (≈ 18.8 µg/mL)	16 µM (≈ 18.8 µg/mL)	antimicrobial capacity after serum incubation [21]: retained their original antimicrobial capacity
N=C(N)NCCC[C@H](NC(=O)[C@H](Cc1ccc2ccccc2c1)NC(=O)[C@H](Cc1ccc2ccccc2c1)NC(=O)[C@H](Cc1ccc2ccccc2c1)NC(=O)[C@H](Cc1ccc2ccccc2c1)NC(=O)[C@@H](N)Cc1ccc2ccccc2c1)C(=O)N[C@H](CCCNC(=N)N)C(=O)N[C@@H](CCCNC(=N)N)C(=O)N1CCC[C@H]1C(=O)O [Peptide N5] (H-[2Nal][2Nal][2Nal][2Nal][2Nal]R[dR]RP-OH)	256 µM (≈ 402 µg/mL)	256 µM (≈ 402 µg/mL)	256 µM (≈ 402 µg/mL)	256 µM (≈ 402 µg/mL)	256 µM (≈ 402 µg/mL)	256 µM (≈ 402 µg/mL)	256 µM (≈ 402 µg/mL)	256 µM (≈ 402 µg/mL)	256 µM (≈ 402 µg/mL)	256 µM (≈ 402 µg/mL)	256 µM (≈ 402 µg/mL)	11.66 µM	256 µM (≈ 402 µg/mL)	256 µM (≈ 402 µg/mL)	–
N=C(N)NCCC[C@H](NC(=O)[C@H](Cc1ccc2ccccc2c1)NC(=O)[C@H](Cc1ccc2ccccc2c1)NC(=O)[C@H](Cc1ccc2ccccc2c1)NC(=O)[C@H](Cc1ccc2ccccc2c1)NC(=O)[C@H](Cc1ccc2ccccc2c1)NC(=O)[C@@H](N)Cc1ccc2ccccc2c1)C(=O)N[C@H](CCCNC(=N)N)C(=O)N[C@@H](CCCNC(=N)N)C(=O)N1CCC[C@H]1C(=O)O [Peptide N6] (H-[2Nal][2Nal][2Nal][2Nal][2Nal][2Nal]R[dR]RP-OH)	256 µM (≈ 452 µg/mL)	256 µM (≈ 452 µg/mL)	256 µM (≈ 452 µg/mL)	256 µM (≈ 452 µg/mL)	256 µM (≈ 452 µg/mL)	256 µM (≈ 452 µg/mL)	256 µM (≈ 452 µg/mL)	256 µM (≈ 452 µg/mL)	256 µM (≈ 452 µg/mL)	256 µM (≈ 452 µg/mL)	256 µM (≈ 452 µg/mL)	6.65 µM	256 µM (≈ 452 µg/mL)	256 µM (≈ 452 µg/mL)	–
CN[C@H](CC(C)C)C(=O)N[C@H]1C(=O)N[C@@H](CC(N)=O)C(=O)N[C@H]2C(=O)N[C@H]3C(=O)N[C@H](C(=O)N[C@H](C(=O)O)c4cc(O)cc(O)c4-c4cc3ccc4O)[C@H](O)c3ccc(c(Cl)c3)Oc3cc2cc(c3O[C@@H]2O[C@H](CO)[C@@H](O)[C@H](O)[C@H]2O[C@H]2C[C@](C)(N)[C@H](O)[C@H](C)O2)Oc2ccc(cc2Cl)[C@H]1O [Vancomycin]	–	–	–	–	–	–	–	–	–	–	–	–	–	–	MIC [3]: 128 µM (≈ 186 µg/mL); MIC [4]: 128 µM (≈ 186 µg/mL); MIC [5]: 1 µM (≈ 1.45 µg/mL); MIC [6]: 128 µM (≈ 186 µg/mL)
